# Results taken from ChEMBL document CHEMBL1811903, “Protective role of 14-deoxy-11,12-didehydroandrographolide, a noncytotoxic analogue of andrographolide, in allergic airway inflammation” (J Nat Prod, 2011).
# Active and inactive are the calls of the source. The rule behind the calls is not given here.
# Experiments:
# [1] = tested on: Mus musculus; assay: Antiinflammatory activity in ovalbumin-sensitized BALB/c mouse asthma model lung assessed as suppression in VCAM-1 mRNA level at 1 mg/kg, ip administered 2 hrs before and 10 hrs after ovalbumin challenge measured after 24 hrs by RT-PCR analysis; assay type: functional, organism-based; parameters: dose 1 mg/kg
# [2] = tested on: Mus musculus; assay: Antiinflammatory activity in BALB/c mouse asthma model assessed as reduction in ovalbumin-induced macrophage counts in bronchoalveolar lavage fluid at 1 mg/kg, ip administered 2 hrs before and 10 hrs after ovalbumin challenge measured after 24 hrs by cell counting; assay type: functional, organism-based; parameters: dose 1 mg/kg; settings: Lung
# [3] = tested on: Mus musculus; assay: Antiinflammatory activity in ovalbumin-sensitized BALB/c mouse asthma model assessed as reduction in methacholine-induced maximum total lung resistance at 1 mg/kg, ip administered 2 hrs before and 10 hrs after ovalbumin challenge; assay type: functional, organism-based; parameters: dose 1 mg/kg
# [4] = tested on: Mus musculus; assay: Antiinflammatory activity in ip dosed BALB/c mouse asthma model assessed as reduction in ovalbumin-induced total cell counts in bronchoalveolar lavage fluid administered 2 hrs before and 10 hrs after ovalbumin challenge measured after 24 hrs by cell counting; assay type: functional, organism-based; settings: Lung
# [5] = tested on: Mus musculus; assay: Antiinflammatory activity in ovalbumin-sensitized BALB/c mouse asthma model lung assessed as suppression in AMCase mRNA level at 1 mg/kg, ip administered 2 hrs before and 10 hrs after ovalbumin challenge measured after 24 hrs by RT-PCR analysis; assay type: functional, organism-based; parameters: dose 1 mg/kg
# [6] = tested on: Mus musculus; assay: Antiinflammatory activity in ovalbumin-sensitized BALB/c mouse asthma model lung assessed as suppression in E-selectin mRNA level at 1 mg/kg, ip administered 2 hrs before and 10 hrs after ovalbumin challenge measured after 24 hrs by RT-PCR analysis; assay type: functional, organism-based; parameters: dose 1 mg/kg
# [7] = tested on: Mus musculus; assay: Antiinflammatory activity in ovalbumin-sensitized BALB/c mouse asthma model assessed as reduction in IgG2a level in serum at 0.1 to 1 mg/kg, ip administered 2 hrs before and 10 hrs after ovalbumin challenge measured after 24 hrs by ELISA; assay type: functional, organism-based
# [8] = tested on: Mus musculus; assay: Inhibition of ovalbumin-induced mast cell degranulation in BALB/c mouse asthma model at 1 mg/kg, ip administered 2 hrs before and 10 hrs after ovalbumin challenge measured after 24 hrs using toluidine blue staining by cell counting; assay type: functional, organism-based; parameters: dose 1 mg/kg
# [9] = tested on: RBL-2H3; assay: Inhibition of IgE-mediated rat RBL2H3 cell degranulation assessed as inhibition of beta-hexosaminidase release; assay type: functional, cell-based
# [10] = tested on: Mus musculus; assay: Antiinflammatory activity in ovalbumin-sensitized BALB/c mouse asthma model lung assessed as suppression in IL-17 mRNA level at 1 mg/kg, ip administered 2 hrs before and 10 hrs after ovalbumin challenge measured after 24 hrs by RT-PCR analysis; assay type: functional, organism-based; parameters: dose 1 mg/kg
# [11] = tested on: Mus musculus; assay: Antiinflammatory activity in ip dosed BALB/c mouse asthma model assessed as reduction in ovalbumin-induced eosinophil counts in bronchoalveolar lavage fluid administered 2 hrs before and 10 hrs after ovalbumin challenge measured after 24 hrs by cell counting; assay type: functional, organism-based; settings: Lung
# [12] = tested on: Mus musculus; assay: Antiinflammatory activity in ovalbumin-sensitized BALB/c mouse asthma model lung assessed as Inhibition of NF-kappaB p65 subunit nuclear translocation at 1 mg/kg, ip administered 2 hrs before and 10 hrs after ovalbumin challenge measured after 24 hrs by immunoblotting; assay type: functional, organism-based; parameters: dose 1 mg/kg
# [13] = tested on: Mus musculus; assay: Antiinflammatory activity in ovalbumin-sensitized BALB/c mouse asthma model lung assessed as suppression in Ym-2 mRNA level at 1 mg/kg, ip administered 2 hrs before and 10 hrs after ovalbumin challenge measured after 24 hrs by RT-PCR analysis; assay type: functional, organism-based; parameters: dose 1 mg/kg
# [14] = tested on: Mus musculus; assay: Toxicity in BALB/c mouse assessed as reduction in red blood cell count at 1 mg/kg, ip; assay type: organism-based; parameters: dose 1 mg/kg, route intraperitoneal; settings: in vivo
# [15] = tested on: Mus musculus; assay: Antiinflammatory activity in ovalbumin-sensitized ip dosed BALB/c mouse asthma model assessed as reduction in IL-5 level in bronchoalveolar lavage fluid administered 2 hrs before and 10 hrs after ovalbumin challenge measured after 24 hrs by ELISA; assay type: functional, organism-based; settings: Lung
# [16] = tested on: Mus musculus; assay: Antiinflammatory activity in ovalbumin-sensitized BALB/c mouse asthma model assessed as reduction in IgG1 level in serum at 0.1 to 1 mg/kg, ip administered 2 hrs before and 10 hrs after ovalbumin challenge measured after 24 hrs by ELISA; assay type: functional, organism-based
# [17] = tested on: Mus musculus; assay: Antiinflammatory activity in ovalbumin-sensitized BALB/c mouse asthma model assessed as reduction in IgE level in serum at 0.1 to 1 mg/kg, ip administered 2 hrs before and 10 hrs after ovalbumin challenge measured after 24 hrs by ELISA; assay type: functional, organism-based
# [18] = tested on: Mus musculus; assay: Antiinflammatory activity in ovalbumin-sensitized BALB/c mouse asthma model assessed as reduction in mucus production in lung at 1 mg/kg, ip administered 2 hrs before and 10 hrs after ovalbumin challenge measured after 24 hrs using PAS staining by histologic analysis; assay type: functional, organism-based; parameters: dose 1 mg/kg
# [19] = tested on: Mus musculus; assay: Antiinflammatory activity in ovalbumin-sensitized ip dosed BALB/c mouse asthma model assessed as reduction in IL-13 level in bronchoalveolar lavage fluid administered 2 hrs before and 10 hrs after ovalbumin challenge measured after 24 hrs by ELISA; assay type: functional, organism-based; settings: Lung
# [20] = tested on: Mus musculus; assay: Toxicity in BALB/c mouse assessed as reduction in white blood cell count at 1 mg/kg, ip; assay type: organism-based; parameters: dose 1 mg/kg, route intraperitoneal; settings: in vivo
# [21] = tested on: RBL-2H3; assay: Cytotoxicity against rat RBL2H3 cells assessed as reduction in cell viability at 3 to 120 uM after 24 to 48 hrs by MTS assay; assay type: cell-based; settings: rbl-2h3, 120 µM
# [22] = tested on: Mus musculus; assay: Antiinflammatory activity in ovalbumin-sensitized BALB/c mouse asthma model lung assessed as suppression in […] mRNA level at 1 mg/kg, ip administered 2 hrs before and 10 hrs after ovalbumin challenge measured after 24 hrs by RT-PCR analysis; assay type: functional, organism-based; parameters: dose 1 mg/kg
# [23] = tested on: Mus musculus; assay: Antiinflammatory activity in ovalbumin-sensitized BALB/c mouse asthma model assessed as reduction in total IgE level in serum at 0.1 to 1 mg/kg, ip administered 2 hrs before and 10 hrs after ovalbumin challenge measured after 24 hrs by ELISA; assay type: functional, organism-based
# [24] = tested on: Mus musculus; assay: Antiinflammatory activity in ovalbumin-sensitized ip dosed BALB/c mouse asthma model assessed as reduction in eotaxin level in bronchoalveolar lavage fluid administered 2 hrs before and 10 hrs after ovalbumin challenge measured after 24 hrs by ELISA; assay type: functional, organism-based; settings: Lung
# [25] = biological target: Transcription factor p65 (Homo sapiens) (UniProt Q04206); assay: Inhibition of NF-kappaB p65 subunit translocation in TNFalpha-stimulated human A549 cells assessed as reduction in p65 level in nuclear extract at 30 uM after 24 hrs by immunoblotting; assay type: cell-based
# [26] = tested on: Mus musculus; assay: Antiinflammatory activity in ovalbumin-sensitized BALB/c mouse asthma model lung assessed as suppression in MCP-1 mRNA level at 1 mg/kg, ip administered 2 hrs before and 10 hrs after ovalbumin challenge measured after 24 hrs by RT-PCR analysis; assay type: functional, organism-based; parameters: dose 1 mg/kg
# [27] = tested on: Mus musculus; assay: Antiinflammatory activity in BALB/c mouse asthma model assessed as reduction in ovalbumin-induced lymphocyte counts in bronchoalveolar lavage fluid at 1 mg/kg, ip administered 2 hrs before and 10 hrs after ovalbumin challenge measured after 24 hrs by cell counting; assay type: functional, organism-based; parameters: dose 1 mg/kg; settings: Lung
# [28] = tested on: Mus musculus; assay: Antiinflammatory activity in ovalbumin-sensitized ip dosed BALB/c mouse asthma model assessed as reduction in IL-4 level in bronchoalveolar lavage fluid administered 2 hrs before and 10 hrs after ovalbumin challenge measured after 24 hrs by ELISA; assay type: functional, organism-based; settings: Lung
# [29] = tested on: Mus musculus; assay: Toxicity in BALB/c mouse assessed as reduction in hematocrit at 1 mg/kg, ip; assay type: organism-based; parameters: dose 1 mg/kg, route intraperitoneal; settings: in vivo
# [30] = tested on: Mus musculus; assay: Antiinflammatory activity in ovalbumin-sensitized BALB/c mouse asthma model lung assessed as suppression in COX-2 mRNA level at 1 mg/kg, ip administered 2 hrs before and 10 hrs after ovalbumin challenge measured after 24 hrs by RT-PCR analysis; assay type: functional, organism-based; parameters: dose 1 mg/kg
# [31] = biological target: Transcription factor p65 (Homo sapiens) (UniProt Q04206); assay: Inhibition of NF-kappaB p65 subunit in TNFalpha-stimulated human A549 cells assessed as reduction in DNA binding activity at 30 uM after 24 hrs by ELISA; assay type: cell-based
# [32] = tested on: Mus musculus; assay: Toxicity in BALB/c mouse assessed as reduction in hemoglobin concentration at 1 mg/kg, ip; assay type: organism-based; parameters: dose 1 mg/kg, route intraperitoneal; settings: in vivo
# [33] = tested on: Mus musculus; assay: Antiinflammatory activity in ovalbumin-sensitized BALB/c mouse asthma model assessed as reduction in methacholine-induced distensibility of the lung at 1 mg/kg, ip administered 2 hrs before and 10 hrs after ovalbumin challenge; assay type: functional, organism-based; parameters: dose 1 mg/kg
# [34] = tested on: Mus musculus; assay: Antiinflammatory activity in ovalbumin-sensitized BALB/c mouse asthma model lung assessed as suppression in IL-33 mRNA level at 1 mg/kg, ip administered 2 hrs before and 10 hrs after ovalbumin challenge measured after 24 hrs by RT-PCR analysis; assay type: functional, organism-based; parameters: dose 1 mg/kg
# [35] = tested on: Mus musculus; assay: Antiinflammatory activity in ovalbumin-sensitized BALB/c mouse asthma model lung assessed as suppression in Muc5ac mRNA level at 1 mg/kg, ip administered 2 hrs before and 10 hrs after ovalbumin challenge measured after 24 hrs by RT-PCR analysis; assay type: functional, organism-based; parameters: dose 1 mg/kg
# [36] = Cytotoxicity against human BEAS2B cells assessed as reduction in cell viability at 3 to 120 uM after 24 to 48 hrs by MTS assay; assay type: cell-based; settings: beas-2b
# [37] = tested on: Mus musculus; assay: Antiinflammatory activity in ovalbumin-sensitized BALB/c mouse asthma model lung assessed as suppression in Ym-1 mRNA level at 1 mg/kg, ip administered 2 hrs before and 10 hrs after ovalbumin challenge measured after 24 hrs by RT-PCR analysis; assay type: functional, organism-based; parameters: dose 1 mg/kg
# [38] = tested on: Mus musculus; assay: Antiinflammatory activity in ovalbumin-sensitized BALB/c mouse asthma model assessed as reduction in goblet cell hyperplasia at 1 mg/kg, ip administered 2 hrs before and 10 hrs after ovalbumin challenge measured after 24 hrs using hematoxylin and eosin staining by histologic analysis; assay type: functional, organism-based; parameters: dose 1 mg/kg
# [39] = tested on: A549; assay: Cytotoxicity against human A549 cells assessed as reduction in cell viability at 3 to 120 uM after 24 to 48 hrs by MTS assay; assay type: cell-based; settings: a549, 120 µM
# [40] = tested on: Mus musculus; assay: Antiinflammatory activity in ovalbumin-sensitized BALB/c mouse asthma model lung assessed as reduction in NF-kappaB DNA binding activity at 1 mg/kg, ip administered 2 hrs before and 10 hrs after ovalbumin challenge measured after 24 hrs by immunoblotting; assay type: functional, organism-based; parameters: dose 1 mg/kg
# Chain of Transcription factor p65 (Homo sapiens) (Q04206 whole entry): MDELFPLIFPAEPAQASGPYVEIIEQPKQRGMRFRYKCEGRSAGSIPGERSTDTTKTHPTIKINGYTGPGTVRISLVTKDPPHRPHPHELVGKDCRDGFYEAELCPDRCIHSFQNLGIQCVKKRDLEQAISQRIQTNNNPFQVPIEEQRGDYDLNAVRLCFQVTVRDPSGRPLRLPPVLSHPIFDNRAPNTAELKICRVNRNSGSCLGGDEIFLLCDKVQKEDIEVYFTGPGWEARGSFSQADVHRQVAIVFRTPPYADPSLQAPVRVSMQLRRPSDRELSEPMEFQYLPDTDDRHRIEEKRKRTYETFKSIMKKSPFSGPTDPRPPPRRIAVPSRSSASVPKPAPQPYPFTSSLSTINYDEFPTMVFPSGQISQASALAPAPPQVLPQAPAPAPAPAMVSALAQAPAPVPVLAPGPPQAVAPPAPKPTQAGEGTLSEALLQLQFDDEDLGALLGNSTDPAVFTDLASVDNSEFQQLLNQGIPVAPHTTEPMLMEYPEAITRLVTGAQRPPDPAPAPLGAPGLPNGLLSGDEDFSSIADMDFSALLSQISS
structure (smiles),measurement,setting,value
C=C1CC[C@@H]2[C@](C)(CO)[C@H](O)CC[C@@]2(C)[C@@H]1/C=C/C1=CCOC1=O,Activity,[1],Active
same,Activity,[2],Active
same,Activity,[3],Active
same,Activity,[4],Dose-dependent effect
same,Activity,[5],Active
same,Activity,[6],Active
same,Activity,[7],inactive
same,inhibition,[8],inactive
same,inhibition,[9],inactive
same,Activity,[10],Active
same,Activity,[11],Dose-dependent effect
same,inhibition,[12],Active
same,Activity,[13],Active
same,Activity,[14],Non-toxic
same,Activity,[15],Dose-dependent effect
same,Activity,[16],Active
same,Activity,[17],Active
same,Activity,[18],Active
same,Activity,[19],Dose-dependent effect
same,Activity,[20],Non-toxic
same,Activity,[21],Non-toxic
same,Activity,[22],Active
same,Activity,[23],Active
same,Activity,[24],Dose-dependent effect
same,inhibition,[25],Active
same,Activity,[26],Active
same,Activity,[27],Active
same,Activity,[28],Dose-dependent effect
same,Activity,[29],Non-toxic
same,Activity,[30],Active
same,inhibition,[31],Active
same,Activity,[32],Non-toxic
same,Activity,[33],Active
same,Activity,[34],Active
same,Activity,[35],Active
same,Activity,[36],Non-toxic
same,Activity,[37],Active
same,Activity,[38],Active
same,Activity,[39],Non-toxic
same,Activity,[40],Active
